Results reported in patent publication US8101766B2, “Crystalline form of a biphenyl compound” (Theravance, Inc., priority 2004, dated 2012).

System: His-induced bronchoconstriction
Experiment: Bronchoprotection in guinea pig model of histamine-induced bronchoconstriction
Type: in vivo
Details: inhalation
Experimental: Duration of Bronchoprotection in Guinea Pig Models of Acetylcholine-Induced or Histamine-Induced Bronchoconstriction
To isolate muscarinic antagonist activity in the acetylcholine-induced bronchoconstriction model, the animals were administered propanolol, a compound that blocks β receptor activity, prior to the administration of acetylcholine. Duration of bronchoprotection in the histamine-induced bronchoconstriction model reflects β2 adrenergic receptor agonist activity.
Groups of 6 male guinea pigs (Duncan-Hartley (HsdPoc:DH) Harlan, Madison, Wis.) weighing between 250 and 350 g were individually identified by cage cards. Throughout the study, animals were allowed access to food and water ad libitum.
Test compounds were administered via inhalation over 10 minutes in a whole-body exposure dosing chamber (R&S Molds, San Carlos, Calif.). […] This value was measured gravimetrically by comparing pre- and post-nebulization weights of the filled nebulizer.
The bronchoprotective effects of test compounds administered via inhalation were evaluated using whole body plethysmography at 1.5, 24, 48 and 72 hours post-dose. […]
Once it was determined that baseline values were within the range of 0.3-0.9 mL/cm H2O for compliance and within the range of 0.1-0.199 cm H2O/mL per second for resistance, the pulmonary evaluation was initiated. […]

In the case of `COc1cc(NC(=O)CCN2CCC(OC(=O)Nc3ccccc3-c3ccccc3)CC2)c(Cl)cc1CNC[C@H](O)c1ccc(O)c2[nH]c(=O)ccc12` [compound of formula I, biphenyl-2-ylcarbamic acid 1-[2-(2-chloro-4-{[(R)-2-hydroxy-2-(8-hydroxy-2-oxo-1,2-dihydroquinolin-5-yl)ethylamino]methyl}-5-methoxyphenylcarbamoyl)ethyl]piperidin-4-yl ester], the “bronchoprotective effect against His-induced bronchoconstriction” value is reported as “dose-dependent bronchoprotective effect”.
